Columns and labels:
Format in all cases: biochemical
[1] = biological target: T1, PI3Kδ (Homo sapiens, UniProt O00329); assay: PI3K KinaseGlo assay, PI3Kdelta; settings: 10 nM enzyme, 1 μM ATP, 30 mins
T1 construct: His tag (C); made in house; host or cells: Tn5 insect cells, baculovirus BV1060 (vector LR415)

[2] = biological target: T2, PI3Kβ (Homo sapiens, UniProt P42338); assay: PI3K KinaseGlo assay, PI3Kbeta; settings: 25 nM enzyme, 1 μM ATP, 30 mins
T2 construct: His tag (C); made in house; host or cells: Tn5 insect cells, baculovirus BV949 (vector LR280)
T2 sequence (P42338 with tags, fused parts or gaps): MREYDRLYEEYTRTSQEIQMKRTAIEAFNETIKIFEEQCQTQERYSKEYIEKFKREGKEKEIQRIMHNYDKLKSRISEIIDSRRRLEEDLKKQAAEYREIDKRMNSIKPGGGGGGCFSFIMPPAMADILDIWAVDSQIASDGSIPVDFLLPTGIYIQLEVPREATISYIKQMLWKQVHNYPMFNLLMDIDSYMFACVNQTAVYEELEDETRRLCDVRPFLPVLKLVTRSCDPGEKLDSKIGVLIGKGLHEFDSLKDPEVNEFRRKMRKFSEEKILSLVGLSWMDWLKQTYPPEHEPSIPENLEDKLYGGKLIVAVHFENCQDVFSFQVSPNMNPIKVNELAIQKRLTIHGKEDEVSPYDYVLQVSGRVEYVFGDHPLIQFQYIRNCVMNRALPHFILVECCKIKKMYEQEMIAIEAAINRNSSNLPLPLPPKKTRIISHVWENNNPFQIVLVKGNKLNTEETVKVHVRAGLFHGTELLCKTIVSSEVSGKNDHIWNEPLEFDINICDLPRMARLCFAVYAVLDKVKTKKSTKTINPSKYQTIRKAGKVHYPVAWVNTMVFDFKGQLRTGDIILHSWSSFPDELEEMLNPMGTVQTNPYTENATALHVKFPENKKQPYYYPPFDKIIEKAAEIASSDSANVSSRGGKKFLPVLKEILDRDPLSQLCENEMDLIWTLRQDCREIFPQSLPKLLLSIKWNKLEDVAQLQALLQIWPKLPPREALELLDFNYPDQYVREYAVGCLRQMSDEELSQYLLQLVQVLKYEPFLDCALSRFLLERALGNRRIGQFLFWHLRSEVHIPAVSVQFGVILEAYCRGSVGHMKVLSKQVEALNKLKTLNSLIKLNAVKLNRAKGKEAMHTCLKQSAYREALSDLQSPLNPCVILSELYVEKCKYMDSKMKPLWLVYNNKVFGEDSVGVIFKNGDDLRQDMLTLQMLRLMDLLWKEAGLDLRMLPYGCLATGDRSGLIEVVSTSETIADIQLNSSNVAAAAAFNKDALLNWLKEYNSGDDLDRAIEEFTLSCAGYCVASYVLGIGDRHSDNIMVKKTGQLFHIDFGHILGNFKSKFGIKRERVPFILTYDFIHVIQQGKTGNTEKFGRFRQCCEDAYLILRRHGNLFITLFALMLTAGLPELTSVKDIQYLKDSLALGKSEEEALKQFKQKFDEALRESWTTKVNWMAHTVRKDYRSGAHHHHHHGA

[3] = biological target: T3, PI3Kγ (Homo sapiens, UniProt P48736, Q459R); assay: PI3K KinaseGlo assay, PI3Kgamma; settings: 150 nM enzyme, 1 μM ATP, 90 mins
T3 construct: Constructs lacking the N-terminal 144 aa; His tag (C); made in house; host or cells: Tn5 insect cells, baculovirus BV950; construct from the Roger Williams lab (MRC LMB)
T3 sequence (P48736 with tags, fused parts or gaps Q459R): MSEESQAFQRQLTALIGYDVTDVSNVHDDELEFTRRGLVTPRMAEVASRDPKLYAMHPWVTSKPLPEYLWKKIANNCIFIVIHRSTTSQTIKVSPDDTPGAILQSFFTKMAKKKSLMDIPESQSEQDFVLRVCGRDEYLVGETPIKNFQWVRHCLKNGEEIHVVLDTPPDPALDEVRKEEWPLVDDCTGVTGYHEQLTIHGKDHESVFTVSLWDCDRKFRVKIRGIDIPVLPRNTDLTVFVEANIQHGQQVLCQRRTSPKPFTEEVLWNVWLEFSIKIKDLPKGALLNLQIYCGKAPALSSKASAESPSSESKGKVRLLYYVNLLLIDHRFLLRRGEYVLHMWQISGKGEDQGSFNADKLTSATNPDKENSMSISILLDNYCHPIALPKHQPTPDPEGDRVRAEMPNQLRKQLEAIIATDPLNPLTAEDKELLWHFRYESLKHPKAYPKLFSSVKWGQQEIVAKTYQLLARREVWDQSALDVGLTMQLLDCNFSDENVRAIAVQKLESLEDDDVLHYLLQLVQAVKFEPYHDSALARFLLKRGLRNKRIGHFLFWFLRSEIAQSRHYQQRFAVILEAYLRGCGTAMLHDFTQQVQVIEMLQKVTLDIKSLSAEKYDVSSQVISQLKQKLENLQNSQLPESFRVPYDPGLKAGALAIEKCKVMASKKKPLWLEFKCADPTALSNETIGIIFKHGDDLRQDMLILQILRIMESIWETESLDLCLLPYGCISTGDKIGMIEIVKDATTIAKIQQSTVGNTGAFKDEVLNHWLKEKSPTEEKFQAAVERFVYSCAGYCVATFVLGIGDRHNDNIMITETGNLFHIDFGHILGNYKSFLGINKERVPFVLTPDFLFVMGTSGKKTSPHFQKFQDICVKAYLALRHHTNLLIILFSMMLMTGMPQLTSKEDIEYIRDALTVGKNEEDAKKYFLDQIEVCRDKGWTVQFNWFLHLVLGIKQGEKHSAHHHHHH

[4] = biological target: T4, PI3Kα (Homo sapiens, UniProt P42336); assay: PI3K KinaseGlo assay, PI3Kalpha; settings: 10 nM enzyme, 1 μM ATP, 30 mins
T4 construct: His tag (C); made in house; host or cells: Tn5 insect cells, baculovirus BV-1075
T4 sequence (P42336 with tags, fused parts or gaps): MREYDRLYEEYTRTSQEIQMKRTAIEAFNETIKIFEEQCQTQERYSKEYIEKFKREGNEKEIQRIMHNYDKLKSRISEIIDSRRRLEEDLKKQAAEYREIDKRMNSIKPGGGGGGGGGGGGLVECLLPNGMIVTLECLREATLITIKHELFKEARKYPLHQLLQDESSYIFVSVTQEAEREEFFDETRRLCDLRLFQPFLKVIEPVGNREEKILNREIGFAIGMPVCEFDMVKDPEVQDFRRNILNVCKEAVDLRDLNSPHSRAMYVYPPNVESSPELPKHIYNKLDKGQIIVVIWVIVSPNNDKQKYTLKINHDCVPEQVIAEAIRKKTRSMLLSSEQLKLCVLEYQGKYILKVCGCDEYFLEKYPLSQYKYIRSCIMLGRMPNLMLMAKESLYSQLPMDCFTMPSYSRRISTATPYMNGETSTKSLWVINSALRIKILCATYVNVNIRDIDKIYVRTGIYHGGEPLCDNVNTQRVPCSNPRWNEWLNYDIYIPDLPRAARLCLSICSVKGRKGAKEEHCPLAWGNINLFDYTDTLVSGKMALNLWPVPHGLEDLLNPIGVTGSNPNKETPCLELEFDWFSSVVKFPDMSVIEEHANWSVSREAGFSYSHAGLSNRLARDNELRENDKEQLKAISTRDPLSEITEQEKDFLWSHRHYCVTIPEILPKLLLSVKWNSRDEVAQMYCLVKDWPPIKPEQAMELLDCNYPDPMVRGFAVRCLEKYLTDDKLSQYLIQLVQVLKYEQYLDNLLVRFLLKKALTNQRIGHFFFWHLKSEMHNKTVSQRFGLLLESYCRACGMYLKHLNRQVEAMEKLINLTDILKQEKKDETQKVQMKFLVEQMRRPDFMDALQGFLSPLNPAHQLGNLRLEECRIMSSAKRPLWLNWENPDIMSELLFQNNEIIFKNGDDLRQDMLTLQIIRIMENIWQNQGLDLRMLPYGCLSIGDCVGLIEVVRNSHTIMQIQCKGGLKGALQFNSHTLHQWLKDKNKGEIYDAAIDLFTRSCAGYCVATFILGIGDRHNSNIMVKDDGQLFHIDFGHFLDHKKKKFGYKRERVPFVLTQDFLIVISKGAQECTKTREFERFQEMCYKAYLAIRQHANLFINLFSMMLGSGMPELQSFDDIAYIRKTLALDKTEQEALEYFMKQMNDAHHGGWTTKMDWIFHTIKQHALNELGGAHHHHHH

T1 sequence (O00329 with tags, fused parts or gaps): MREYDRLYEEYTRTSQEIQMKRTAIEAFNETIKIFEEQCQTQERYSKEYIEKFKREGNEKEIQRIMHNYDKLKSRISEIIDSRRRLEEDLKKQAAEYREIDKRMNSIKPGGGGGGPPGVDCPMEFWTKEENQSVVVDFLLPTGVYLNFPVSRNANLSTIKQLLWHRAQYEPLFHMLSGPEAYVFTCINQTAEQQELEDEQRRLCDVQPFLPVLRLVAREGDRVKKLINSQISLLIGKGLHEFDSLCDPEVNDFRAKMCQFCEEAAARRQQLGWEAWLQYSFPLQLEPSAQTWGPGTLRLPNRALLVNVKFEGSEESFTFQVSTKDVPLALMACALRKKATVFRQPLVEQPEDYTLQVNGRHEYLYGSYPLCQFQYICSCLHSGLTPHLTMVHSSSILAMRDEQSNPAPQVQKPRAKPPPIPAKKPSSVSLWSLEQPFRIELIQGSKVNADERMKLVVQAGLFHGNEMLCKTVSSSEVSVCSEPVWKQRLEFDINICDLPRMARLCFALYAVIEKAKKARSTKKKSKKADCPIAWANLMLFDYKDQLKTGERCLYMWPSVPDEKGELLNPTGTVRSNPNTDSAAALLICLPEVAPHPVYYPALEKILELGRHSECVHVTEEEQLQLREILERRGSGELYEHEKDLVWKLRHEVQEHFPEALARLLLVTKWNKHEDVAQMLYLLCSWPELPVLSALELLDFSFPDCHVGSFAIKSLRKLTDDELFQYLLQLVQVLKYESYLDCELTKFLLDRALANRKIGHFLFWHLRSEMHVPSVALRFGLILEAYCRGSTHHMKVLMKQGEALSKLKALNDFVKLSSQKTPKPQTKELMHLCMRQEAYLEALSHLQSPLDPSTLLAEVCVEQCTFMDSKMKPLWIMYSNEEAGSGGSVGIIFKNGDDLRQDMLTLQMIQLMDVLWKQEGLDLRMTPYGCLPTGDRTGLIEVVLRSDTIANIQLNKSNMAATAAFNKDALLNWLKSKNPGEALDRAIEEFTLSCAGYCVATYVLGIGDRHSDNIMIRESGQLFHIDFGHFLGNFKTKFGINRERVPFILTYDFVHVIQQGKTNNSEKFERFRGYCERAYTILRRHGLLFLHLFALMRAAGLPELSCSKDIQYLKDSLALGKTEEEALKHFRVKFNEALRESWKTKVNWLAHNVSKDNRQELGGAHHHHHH

Row | SMILES | IC50 [1] [nM] | IC50 [2] [nM] | IC50 [3] [nM] | IC50 [4] [nM]
1 | CCN(CC)c1ncc2c(n1)-c1sc(NC(=O)N3C[C@@H](N(C)C)C[C@H]3C(N)=O)nc1CC2 [Example 22, (2S,4S)-4-Dimethylamino-pyrrolidine-1,2-dicarboxylic acid 2-amide 1-[(8-diethylamino-4,5-dihydro-thiazolo[4,5-h]quinazolin-2-yl)-amide]] | 1900 | 6900 | 262 | 23.5
2 | CCN(CC)c1ncc2c(n1)-c1sc(NC(=O)N3CCC[C@@]3(CO)C(N)=O)nc1CC2 [Example 8, (R)-2-Hydroxymethyl-pyrrolidine-1,2-dicarboxylic acid 2-amide 1-[(8-diethylamino-4,5-dihydro-thiazolo[4,5-h]quinazolin-2-yl)-amide]] | 198 | 276 | 180 | 9.5
3 | CCN(CC)c1ncc2c(n1)-c1sc(NC(=O)N3C[C@H](F)C[C@H]3C(N)=O)nc1CC2 [Example 16, (2S,4R)-4-Fluoro-pyrrolidine-1,2-dicarboxylic acid 2-amide 1-[(8-diethylamino-4,5-dihydro-thiazolo[4,5-h]quinazolin-2-yl)-amide]] | 60 | 297 | 74 | 5.5
4 | CC(C)(C)c1ncc2c(n1)-c1sc(NC(=O)N3CC[C@H]3C(N)=O)nc1CC2 [Example 25, (S)-Azetidine-1,2-dicarboxylic acid 2-amide 1-[(8-tert-butyl-4,5-dihydro-thiazolo[4,5-h]quinazolin-2-yl)-amide]] | 45 | 346 | 122 | 5.5
5 | CC(C)(C)c1ncc2c(n1)-c1sc(NC(=O)N3CCC3C(N)=O)nc1CC2 (centres unmarked) [Example 24, Azetidine-1,2-dicarboxylic acid 2-amide 1-[(8-tert-butyl-4,5-dihydro-thiazolo[4,5-h]quinazolin-2-yl)-amide]] | 24 | 135 | 98 | 7
6 | CCN(CC)c1ncc2c(n1)-c1sc(NC(=O)N3CCC[C@@]3(C)C(N)=O)nc1CC2 [Example 4, (S)-2-Methyl-pyrrolidine-1,2-dicarboxylic acid 2-amide 1-[(8-diethylamino-4,5-dihydro-thiazolo[4,5-h]quinazolin-2-yl)-amide]] | 220 | 143 | 176 | 6.5
7 | CCN(CC)c1ncc2c(n1)-c1sc(NC(=O)N3CC[C@H](C)[C@H]3C(N)=O)nc1CC2 [Example 2, (2S,3S)-3-Methyl-pyrrolidine-1,2-dicarboxylic acid 2-amide 1-[(8-diethylamino-4,5-dihydro-thiazolo[4,5-h]quinazolin-2-yl)-amide]] | 30 | 332 | 90 | 5.5
8 | CCN(CC)c1ncc2c(n1)-c1sc(NC(=O)N3C[C@H](O)C[C@H]3C(N)=O)nc1CC2 [Example 27, (2S,4R)-4-Hydroxy-pyrrolidine-1,2-dicarboxylic acid 2-amide 1-[(8-diethylamino-4,5-dihydro-thiazolo[4,5-h]quinazolin-2-yl)-amide]] | 72 | 397 | 97 | 4.5

From patent publication US8357707B2, “2-carboxamide cycloamino ureas” (Novartis AG, priority 2009, dated 2013)
